Test results: publication PMC6271006, “Monoamine Oxidase Inhibitory Constituents of Propolis: Kinetics and Mechanism of Inhibition of Recombinant Human MAO-A and MAO-B” (Molecules, 2014)
Like-named read-outs stand apart in the source and are kept apart here.

Columns and labels:
[1] = tested on: MAO-A; design: method as in not given; details: mouse brain crude mitochondrial preparation, iso-enzyme specific substrates; earlier study, ref not given; cited from earlier work
[2] = molecular target: T1, recombinant human MAO-A (Homo sapiens, UniProt P21397); assay: Reversibility of binding by enzyme-inhibitor complex dissociation dialysis, MAO-A; type: biochemical; details: for MAO-A activity recovered after dialysis: overnight dialysis; for Nature of binding with MAO-A: dialysis dissociation
T1 construct: purchased BD Biosciences (Bedford, MA, USA)
T1 sequence (P21397 1-527): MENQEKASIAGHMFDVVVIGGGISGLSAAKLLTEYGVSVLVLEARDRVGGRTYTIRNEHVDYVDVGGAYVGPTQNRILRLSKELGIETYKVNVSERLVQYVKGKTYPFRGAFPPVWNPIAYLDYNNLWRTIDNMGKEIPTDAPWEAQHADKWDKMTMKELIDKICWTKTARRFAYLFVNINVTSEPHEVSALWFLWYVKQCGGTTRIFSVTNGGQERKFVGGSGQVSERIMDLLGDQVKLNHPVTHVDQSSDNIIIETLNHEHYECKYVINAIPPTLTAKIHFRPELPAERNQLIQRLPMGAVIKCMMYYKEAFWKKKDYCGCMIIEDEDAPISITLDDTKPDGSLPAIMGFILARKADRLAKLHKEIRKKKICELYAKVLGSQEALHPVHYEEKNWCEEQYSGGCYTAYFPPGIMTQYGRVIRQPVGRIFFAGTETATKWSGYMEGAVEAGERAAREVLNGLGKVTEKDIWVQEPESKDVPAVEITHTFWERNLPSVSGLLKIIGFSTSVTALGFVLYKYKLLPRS
Protocol: (§1) The characteristic binding of these inhibitors was also investigated by the enzyme-inhibitor complex dissociation by dialysis. High concentrations of the inhibitors were allowed to interact with the enzyme (MAO-A or B) for 20 min and the resulting enzyme-inhibitor complex mixtures were dialyzed overnight against buffer solutions. The catalytic activities of the enzymes were analyzed before and after the dialysis. The recombinant human MAO-A lost about 30% of the enzyme activity during overnight dialysis. […] After the dialysis about 70% and 80% activity of the enzyme was recovered from enzyme-galangin and enzyme-apigenin incubation mixtures. This observation indicated reversal of the enzyme activity due to formation of dissociable enzyme-inhibitor complex. […] The recombinant MAO-B lost about 30% of the enzyme activity during overnight dialysis.
(§2) Most of the inhibitors produce inhibition of the target enzyme through formation of an enzyme-inhibitor complex. Formation of the enzyme-inhibitor complex may be accelerated in presence of high concentration of the inhibitor. […] After 20 min incubation at 37 °C, the reaction was stopped by chilling the tubes on the ice bath. All the samples were dialyzed against potassium phosphate buffer (25 mM; pH 7.4) at 4 °C for 14 h (three buffer changes). Control enzyme (without inhibitor) was also run through the same procedure and activity of the enzyme was determined before and after the dialysis. Recovery of the catalytic activity enzyme after extensive dialysis of the enzyme-inhibitor mix provided the information about reversibility/irreversibility of binding of the inhibitor with the enzyme.

[3] = molecular target: T1, recombinant human MAO-A; assay: Enzyme kinetics / inhibition mechanism, MAO-A (Ki, Lineweaver-Burk); type: biochemical; details: for Ki: kynuramine 1.90-500 μM, SigmaPlot enzyme module, mean ± S.D. of triplicate experiments, read-out: Monoamine Oxidase-A Ki
Description: (§3) Based on dose-response inhibition, two concentrations of the inhibitors were selected, one below and another above IC50 value for the inhibition. For each experiment, three sets of assays were done at varying concentrations of the substrate, one control without inhibitors and with two concentrations of the inhibitor.
(§4) Controls without inhibitor were also run simultaneously.

[4] = molecular target: T1, recombinant human MAO-A; assay: Time-dependent enzyme inhibition, MAO-A; type: biochemical; details: pre-incubation 0-15 min; galangin 0.25 μM, apigenin 1.2 μM
Protocol: (§5) The controls without inhibitors were also run simultaneously. Activities of the enzymes were determined as described above and percentage of enzyme activity remaining was plotted against the preincubation time to determine time-dependent inhibition.
(§6) The controls without inhibitors were also run simultaneously. Activities of the enzymes were determined as described above and percentage of enzyme activity remaining was plotted against the preincubation time to determine time-dependent enzyme-inhibition.

[5] = molecular target: T2, recombinant human MAO-B (Homo sapiens, UniProt P27338); assay: Reversibility of binding by enzyme-inhibitor complex dissociation dialysis, MAO-B; type: biochemical; details: for MAO-B activity recovery after dialysis: overnight dialysis
T2 construct: purchased BD Biosciences (Bedford, MA, USA)
T2 sequence (P27338 1-520): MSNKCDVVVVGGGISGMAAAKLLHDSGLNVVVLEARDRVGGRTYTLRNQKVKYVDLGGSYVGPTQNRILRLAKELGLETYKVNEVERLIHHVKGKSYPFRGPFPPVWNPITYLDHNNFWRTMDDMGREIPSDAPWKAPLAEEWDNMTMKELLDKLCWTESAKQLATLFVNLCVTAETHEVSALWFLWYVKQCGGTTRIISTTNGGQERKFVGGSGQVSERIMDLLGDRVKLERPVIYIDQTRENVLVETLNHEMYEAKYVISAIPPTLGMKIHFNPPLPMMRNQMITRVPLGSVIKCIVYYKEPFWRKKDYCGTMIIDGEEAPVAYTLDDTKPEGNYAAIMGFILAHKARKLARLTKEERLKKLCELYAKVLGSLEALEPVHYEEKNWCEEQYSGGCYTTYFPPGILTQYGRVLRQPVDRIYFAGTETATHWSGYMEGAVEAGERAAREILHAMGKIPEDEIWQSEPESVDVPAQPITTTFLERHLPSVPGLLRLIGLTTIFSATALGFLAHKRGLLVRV
Protocol: as §1, §2

[6] = tested on: total MAO (A & B); design: method as in not given; details: mouse brain crude mitochondrial preparation; earlier study, ref not given; read-out: IC50 for inhibition of total MAO (A & B); cited from earlier work
[7] = molecular target: T2, recombinant human MAO-B; assay: MAO-B inhibition, kynuramine deamination assay (IC50); type: biochemical; details: pure compounds; 50 μM kynuramine; mean ± S.D. of triplicate; read-out: Monoamine Oxidase-B (IC50)
Protocol: (§7) To investigate the effect of the selected constituents on MAO-A and MAO-B, the kynuramine deamination assay was adapted for 96-well plates as described earlier. […] For MAO-A, the substrate concentration of 80 μM kynuramine was chosen because the apparent KM value for substrate binding reported previously was approximately 40 μM [48]. […] Similarly, for MAO-B, substrate concentration of 50 μM kynuramine was chosen. The assay was performed with the addition of inhibitor. Inhibition was calculated as percent of product formation compared to the corresponding control (enzyme-substrate reaction) without the inhibitors. The reactions were carried out in 0.1 M potassium phosphate buffer at pH 7.4. Incubations mixtures contained 5 μg/mL of MAO-A (50 μL in buffer) and 10 μg/mL of MAO-B (50 μL in buffer). The inhibitor was dissolved in DMSO or in buffer (if not dissolved in DMSO). The total reaction volume was 200 μL yielding a final DMSO concentration of 1.0% in the reaction mixture. The reaction mixtures were pre-incubated for 10 min at 37 °C followed by the addition of MAO-A/MAO-B to initiate the reactions. Reactions were incubated for 20 min at 37 °C and were stopped immediately by the addition of 75 μL of 2N NaOH. The formation of 4-hydroxyquinoline was determined fluorometrically by SpectraMax M5 fluorescence plate reader (Molecular Devices, Sunnyvale, CA, USA) with an excitation and emission wavelength of 320 nm and 380 nm, respectively, using the Soft Max Pro program. Appropriate controls with the test compounds, fractions and extracts, where the enzyme or the substrate was added after stopping the reaction were setup simultaneously to check interference with the fluorescence measurements.
(§8) IC50 values for inhibition of MAO-A and B by the selected constituents were determined using fixed concentration of substrate and varying concentration of the inhibitor.

[8] = molecular target: T2, recombinant human MAO-B; assay: Time-dependent enzyme inhibition, MAO-B; type: biochemical; details: pre-incubation 0-15 min; galangin 14.0 μM, apigenin 4.0 μM
Protocol: as §5, §6

[9] = molecular target: T2, recombinant human MAO-B; assay: Enzyme kinetics / inhibition mechanism, MAO-B (Ki, Lineweaver-Burk); type: biochemical
Description: as §3, §4

[10] = molecular target: T1, recombinant human MAO-A; assay: MAO-A inhibition, kynuramine deamination assay (IC50); type: biochemical; details: for IC50: pure compounds, 80 μM kynuramine, mean ± S.D. of triplicate, read-out: Monoamine Oxidase-A (IC50)
Protocol: as §7, §8

O=c1cc(-c2ccc(O)cc2)oc2cc(O)cc(O)c12 [Apigenin, apigenin]
Potency of MAO-A inhibition relative to MAO-B [1]: about 7.5 fold
inhibition at 20 µM ([2]; 20.0 μM inhibitor, 20 min incubation, read-out: Inhibition of catalytic activity of MAO-A before dialysis): > 88%
MAO-A activity recovered after dialysis ([2]; 20.0 μM inhibitor): ~80%
Nature of binding with MAO-A [2]: reversible
Monoamine Oxidase-A Type of Inhibition [3]: Competitive/Reversible
Ki [3]: 125 ± 14 nM
Monoamine Oxidase-A Type of Inhibition ([3]; listed as apigenin): competitive
Time-dependence of binding/inhibition of MAO-A [4]: not dependent on pre-incubation time
inhibition at 25 µM ([5]; 25.0 μM inhibitor, 20 min incubation, read-out: Inhibition of catalytic activity of MAO-B before dialysis): ~90%
MAO-B activity recovery after dialysis ([5]; 25.0 μM inhibitor): almost fully recovered
IC50 [6]: 1000 nM
IC50 [7]: 1.12 ± 0.27 µM
Time-dependence of binding/inhibition of MAO-B [8]: not dependent on pre-incubation time
Monoamine Oxidase-B Type of Inhibition [9]: Competitive/Reversible
Ki ([9]; kynuramine 1.90-500 μM, SigmaPlot enzyme module, mean ± S.D. of triplicate experiments, read-out: Monoamine Oxidase-B Ki): 238 ± 24 nM
Monoamine Oxidase-B Type of Inhibition ([9]; listed as apigenin): competitive
IC50 [10]: 640 ± 110 nM

O=c1c(O)c(-c2ccc(O)c(O)c2)oc2cc(O)ccc12 [Fisetin hydrate, fisetin]
IC50 [7]: > 100 µM
Selectivity for MAO-A vs. MAO-B ([10]; MAO-A over MAO-B): > 47 fold
IC50 [10]: 2100 ± 90 nM

O=c1c(O)c(-c2ccccc2)oc2cc(O)cc(O)c12 [Galangin, galangin]
inhibition at 10 µM ([2]; 10.0 μM inhibitor, 20 min incubation, read-out: Inhibition of catalytic activity of MAO-A before dialysis): > 97%
MAO-A activity recovered after dialysis ([2]; 10.0 μM inhibitor): about 70%
Nature of binding with MAO-A [2]: reversible
Monoamine Oxidase-A Type of Inhibition [3]: Competitive/Reversible
Ki [3]: 29 ± 4 nM
Monoamine Oxidase-A Type of Inhibition ([3]; listed as galangin): competitive
Time-dependence of binding/inhibition of MAO-A [4]: not dependent on pre-incubation time
Inhibition of MAO-B enzyme activity before dialysis ([5]; 50.0 μM inhibitor, 20 min incubation): ~58.3
MAO-B activity recovery after dialysis ([5]; 50.0 μM inhibitor): almost completely recovered
Time-dependence of binding/inhibition of MAO-B [8]: not dependent on pre-incubation time
Monoamine Oxidase-B Type of Inhibition [9]: Competitive/Reversible
Monoamine Oxidase-B Type of Inhibition ([9]; listed as galangin): competitive
IC50 [10]: 130 ± 10 nM

COc1ccc2c(c1)[nH]c1c(C)nccc12 [Harmine, reference compound]
Monoamine Oxidase-A Type of Inhibition [3]: Competitive/Reversible
IC50 [7]: 27.5 ± 2.67 µM

O=c1c(O)c(-c2ccc(O)cc2O)oc2cc(O)cc(O)c12 [Morin hydrate, morin]
IC50 [7]: 49.7 ± 0.56 µM
Selectivity for MAO-A vs. MAO-B ([10]; MAO-A over MAO-B): 9 fold
IC50 [10]: 5880 ± 150 nM

O=c1c(O)c(-c2ccc(O)c(O)c2)oc2cc(O)cc(O)c12 [Quercetin, quercetin]
IC50 [7]: 38.7 ± 1.2 µM
Selectivity for MAO-A vs. MAO-B [10]: 15 fold
IC50 [10]: 2440 ± 120 nM

O=C1c2c(O)cc(O)cc2OC(c2ccc(O)c(O)c2)C1O (stereo not shown) [Toxifolin, taxifolin]
IC50 [7]: 53.8 ± 3.91 µM
IC50 [10]: 65100 ± 1960 nM
